Test results from patent US11168047B2, “Cocrystal of 2-[(1R,6R)-6-isopropenyl-3-methylcyclohex-2-en-1-yl]-5-pentylbenzene-l,3-diol” (ENANTIA, S.L., priority 2017, dated 2021).

Columns and labels:
[1] = in humans; cited from earlier work
[2] = open vial, 40° C. and 75±5% relative humidity
Method: The aim of the study is to evaluate the stability of cocrystal Form I of the present invention.
Cocrystal Form I of the present invention obtained by the process disclosed in section 1.1.B.1.
Cocrystal Form I (55 mg) is stored in an open vial and exposed to accelerated stability conditions (40° C. and 75±5% relative humidity) according to ICH guidelines (Guidance for Industry Q1A(R2) Stability Testing of New Drug Substances and Products—available on the website http://www.ich.org/products/guidelines/quality/quality-single/article/stability-testing-of-new-drug-substances-and-products.html on Aug. 4, 2017).

| Structure (SMILES) | oral bioavailability [1] | stability (solid form) [2] |
| --- | --- | --- |
| C=C(C)[C@@H]1CCC(C)=C[C@H]1c1c(O)cc(CCCCC)cc1O [CBD, 2-[(1R,6R)-6-isopropenyl-3-methylcyclohex-2-en-1-yl]-5-pentylbenzene-1,3-diol] | 6-33% | – |
| C=C(C)[C@@H]1CCC(C)=C[C@H]1c1c(O)cc(CCCCC)cc1O.O=C(O)[C@@H]1CCCN1 [cocrystal Form I, cocrystal of 2-[(1R,6R)-6-isopropenyl-3-methylcyclohex-2-en-1-yl]-5-pentylbenzene-1,3-diol with L-proline] | – | remained stable for at least three weeks |
